# Measured values from the supplement of paper PMC10307832.
# Tests used:
# Experiment in all cases: relative viability (nuclei count vs DMSO), 5 days (fraction); higher = more cells survive
# Fedratinib + Alpelisib = compound: Cc1cnc(Nc2ccc(OCCN3CCCC3)cc2)nc1Nc1cccc(S(=O)(=O)NC(C)(C)C)c1 [Fedratinib] + Cc1nc(NC(=O)N2CCC[C@H]2C(N)=O)sc1-c1ccnc(C(C)(C)C(F)(F)F)c1 [Alpelisib] (partner 2 µM)
# Method in brief: (§1)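 For relative viability, nuclei counts in treated wells were divided by those in vehicle wells. Lung cancer cell lines had been pin-tool dosed in 1536-well plates the day after seeding and cultured for 5 days, then fixed and stained in one step (final 0.05% Triton X-100, 1% formaldehyde, 1 ug/ml Hoechst) and imaged at 4×. Doses were one drug alone or a fixed anchor-drug dose plus five library-drug doses (not always all listed) in √10 steps, and values are duplicate-plate medians.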
# Fedratinib + Lapatinib = compound: Cc1cnc(Nc2ccc(OCCN3CCCC3)cc2)nc1Nc1cccc(S(=O)(=O)NC(C)(C)C)c1 [Fedratinib] + CS(=O)(=O)CCNCc1ccc(-c2ccc3ncnc(Nc4ccc(OCc5cccc(F)c5)c(Cl)c4)c3c2)o1 [Lapatinib] (partner 2 µM)
# Method in brief: as §1
# GW-2580 + Decitabine = compound: COC1=CC=C(C=C1)COC2=C(C=C(C=C2)CC3=CN=C(N=C3N)N)OC [GW-2580] + Nc1ncn([C@H]2C[C@H](O)[C@@H](CO)O2)c(=O)n1 [Decitabine] (partner 2 µM)
# Method in brief: as §1
# GW-2580 + AZD7762 = compound: COC1=CC=C(C=C1)COC2=C(C=C(C=C2)CC3=CN=C(N=C3N)N)OC [GW-2580] + NC(=O)Nc1cc(-c2cccc(F)c2)sc1C(=O)N[C@H]1CCCNC1 [AZD7762] (partner 0.2 µM)
# Method in brief: as §1
# GW-2580 + Vorinostat = compound: COC1=CC=C(C=C1)COC2=C(C=C(C=C2)CC3=CN=C(N=C3N)N)OC [GW-2580] + O=C(CCCCCCC(=O)Nc1ccccc1)NO [Vorinostat] (partner 1 µM)
# Method in brief: as §1
Cell Line,relative viability (Fedratinib + Alpelisib; first compound 0.3162 µM),relative viability (Fedratinib + Alpelisib; first compound 1 µM),relative viability (Fedratinib + Lapatinib; first compound 0.1 µM),relative viability (Fedratinib + Lapatinib; first compound 0.3162 µM),relative viability (Fedratinib + Lapatinib; first compound 1 µM),relative viability (GW-2580 + Decitabine; first compound 0.08 µM),relative viability (GW-2580 + Decitabine; first compound 0.8 µM),relative viability (GW-2580 + Decitabine; first compound 2.53 µM),relative viability (GW-2580 + Decitabine; first compound 8 µM),relative viability (GW-2580 + AZD7762; first compound 0.08 µM),relative viability (GW-2580 + AZD7762; first compound 0.8 µM),relative viability (GW-2580 + AZD7762; first compound 2.53 µM),relative viability (GW-2580 + AZD7762; first compound 8 µM),relative viability (GW-2580 + Vorinostat; first compound 0.08 µM),relative viability (GW-2580 + Vorinostat; first compound 0.8 µM),relative viability (GW-2580 + Vorinostat; first compound 2.53 µM),relative viability (GW-2580 + Vorinostat; first compound 8 µM),relative viability (Fedratinib + Alpelisib; first compound 0.1 µM)
LK-2,0.936,0.936,0.798,0.828,0.638,0.227,0.3,0.253,0.334,0.44,0.681,0.269,0.284,0.242,0.28,0.205,0.311,–
LOU-NH91,0.785,0.676,0.732,0.798,0.638,0.82,0.861,0.782,0.905,0.862,0.677,0.743,0.794,0.925,1.03,0.801,0.943,0.615
LU99A,0.518,0.387,1.08,0.988,0.321,0.924,1.05,0.812,0.952,0.509,0.315,0.267,0.281,0.646,0.522,0.435,0.528,0.55
LXF-289,0.997,1.05,0.894,0.883,0.737,0.358,0.391,0.407,0.368,1.17,1.2,1.07,1.06,0.843,0.806,0.776,0.72,1.06
NCI-H23,0.743,0.598,1.23,1.03,0.319,0.324,0.334,0.308,0.283,0.264,0.21,0.243,0.179,0.53,0.782,0.462,0.546,0.585
NCI-H322M,0.75,0.771,0.608,0.615,0.523,0.73,0.816,0.611,0.489,0.508,0.706,0.598,0.531,0.843,0.996,0.893,0.903,0.814
NCI-H358,0.768,0.466,0.366,0.369,0.334,0.208,0.206,0.201,0.217,0.588,0.604,0.516,0.363,0.754,0.816,0.631,0.984,0.773
NCI-H460,0.581,0.259,1.45,0.956,0.855,0.577,0.574,0.461,0.461,0.595,0.714,0.383,0.492,0.85,1.11,0.721,0.631,0.536
NCI-H596,0.576,0.506,0.961,1.07,0.829,1.12,0.883,1.89,0.937,1.1,1.18,1.19,1.14,0.591,0.595,0.495,0.564,0.459
NCI-H647,1.09,0.809,1.22,1.12,0.173,0.402,0.272,0.361,0.383,0.567,0.621,0.326,0.405,0.726,0.511,0.59,0.447,1.13
NCI-H650,1.03,0.865,–,1.07,0.347,0.337,0.315,0.292,0.328,0.884,1.28,0.869,0.982,0.512,0.502,0.349,0.416,–
NCI-H727,0.609,0.532,0.783,0.846,0.211,0.784,1.12,0.808,0.768,0.461,0.732,0.576,0.432,1.09,1.26,1.25,1.26,0.597
NCI-H838,0.954,0.954,0.875,1.02,0.205,0.438,0.466,0.435,0.426,0.976,0.998,0.92,0.986,0.789,0.782,0.691,0.771,0.979
NCI-H1355,0.853,0.832,0.734,1.04,0.962,0.314,0.339,0.322,0.353,0.807,0.767,0.566,0.676,0.701,0.656,0.529,0.697,0.731
NCI-H1395,1,1.39,0.911,1.11,0.786,0.793,0.689,0.753,0.776,0.421,0.377,0.422,0.416,0.669,0.662,0.623,0.742,0.885
NCI-H1437,0.975,0.859,0.821,0.827,0.19,0.564,0.574,0.617,0.535,1.11,1.09,1.04,0.995,0.923,0.918,0.674,0.534,0.826
NCI-H1651,1.01,0.9,0.817,0.813,0.118,0.565,0.666,0.551,0.548,0.452,0.53,0.535,0.455,0.516,0.636,0.534,0.555,1.16

Cell Line,relative viability (Fedratinib + Alpelisib; first compound 0.3162 µM),relative viability (Fedratinib + Alpelisib; first compound 1 µM),relative viability (Fedratinib + Lapatinib; first compound 0.1 µM),relative viability (Fedratinib + Lapatinib; first compound 0.3162 µM),relative viability (Fedratinib + Lapatinib; first compound 1 µM),relative viability (GW-2580 + Decitabine; first compound 0.08 µM),relative viability (GW-2580 + Decitabine; first compound 0.8 µM),relative viability (GW-2580 + Decitabine; first compound 2.53 µM),relative viability (GW-2580 + Decitabine; first compound 8 µM),relative viability (GW-2580 + AZD7762; first compound 0.08 µM),relative viability (GW-2580 + AZD7762; first compound 0.8 µM),relative viability (GW-2580 + AZD7762; first compound 2.53 µM),relative viability (GW-2580 + AZD7762; first compound 8 µM),relative viability (GW-2580 + Vorinostat; first compound 0.08 µM),relative viability (GW-2580 + Vorinostat; first compound 0.8 µM),relative viability (GW-2580 + Vorinostat; first compound 2.53 µM),relative viability (GW-2580 + Vorinostat; first compound 8 µM),relative viability (Fedratinib + Alpelisib; first compound 0.1 µM)
NCI-H1666,1.05,1.02,0.503,0.671,0.258,0.604,0.888,0.738,0.698,0.824,1.1,0.852,0.826,1.08,1.16,0.94,0.967,0.872
NCI-H1734,0.654,0.62,1.18,1.1,0.183,0.522,0.457,0.539,0.55,0.543,0.558,0.481,0.568,0.871,0.802,0.725,0.775,0.627
NCI-H1755,0.886,0.82,1.02,1,0.942,0.695,0.714,0.757,0.654,0.483,0.486,0.448,0.405,1.03,0.77,0.7,0.748,0.969
NCI-H1793,0.683,0.627,0.628,0.61,0.311,0.493,0.614,0.473,0.503,0.587,0.382,0.266,0.323,0.755,0.88,0.566,0.718,0.746
NCI-H1915,1.04,0.943,0.891,0.985,0.662,0.248,0.272,0.575,0.251,0.772,0.708,0.692,0.743,0.559,0.583,0.442,0.508,1.03
NCI-H1944,0.945,0.716,0.816,0.803,0.615,0.414,0.421,0.45,0.395,0.572,0.498,0.485,0.452,0.551,0.53,0.513,0.52,0.804
NCI-H1975,0.692,0.467,1.02,0.922,0.163,0.417,0.455,0.376,0.4,0.829,0.805,0.598,0.815,0.755,0.75,0.654,0.647,0.613
NCI-H1993,0.755,0.65,0.725,0.82,0.608,0.652,0.665,0.514,0.63,0.851,0.772,0.687,0.868,0.993,0.887,0.661,0.868,0.612
NCI-H2085,0.963,0.922,0.709,0.766,0.538,0.577,0.542,0.541,0.589,1.14,1.14,0.989,0.919,0.786,0.856,0.735,0.821,0.977
NCI-H2087,1.05,0.963,1.25,1.31,0.303,0.276,0.267,0.237,0.276,1.33,1.4,1.12,0.937,0.802,0.807,0.696,0.715,1.03
NCI-H2126,0.719,0.786,0.761,0.772,0.689,0.582,0.614,0.574,0.569,1.06,1.02,0.942,1.03,0.817,0.794,0.749,0.814,0.745
NCI-H2170,0.809,0.654,0.255,0.262,0.258,0.521,0.464,0.47,0.467,0.982,0.864,0.723,0.837,0.932,0.903,0.64,0.775,0.835
NCI-H2347,1.04,1,1.03,0.998,0.882,0.676,0.662,0.582,0.587,0.852,0.855,0.636,0.776,0.619,0.621,0.549,0.575,1.04
NCI-H2405,0.824,0.698,0.91,1.07,0.753,0.739,0.766,0.746,0.729,0.793,0.712,0.703,0.581,1.05,1.19,0.9,0.785,0.626
NCI-H3122,0.682,0.7,1.04,0.966,0.555,0.377,0.411,0.437,0.54,1.01,1.02,1.06,1,1.08,1.06,1.06,1.13,0.833
PC-3 [JPC-3],1.01,1.09,0.422,0.446,0.412,0.8,0.855,0.829,0.783,0.732,1.09,0.897,0.781,0.917,1.26,0.572,0.639,0.985
PC-14,0.961,0.916,0.261,0.351,0.249,0.191,0.198,0.236,0.221,0.47,0.484,0.271,0.396,0.919,0.977,0.724,0.607,0.915
